Assay results reported in publication PMC7155171, “Probing the Open Global Health Chemical Diversity Library for Multistage-Active Starting Points for Next-Generation Antimalarials” (ACS Infectious Diseases, 2020).
Where two headings read alike, the source gives them in different places.

Assays:
[1] = tested on: P. falciparum Dd2 (PfLuc) line expressing firefly luciferase, asexual blood stage; assay: microbe, parasite or virus in culture; format: cell-based, Plasmodium falciparum; conditions: Plasmodium falciparum
P. falciparum Dd2 = assay: SYBR green I asexual blood stage proliferation assay (96 h); format: cell-based, Plasmodium falciparum; conditions: for IC50 / Emax: Plasmodium falciparum; for Emax: read-out: CDD P. falciparum Sybr Green I ABS 11-pt Reconfirmation Dose Response (96hr): Maximum inhibition (%)
[2] = DD2, read-out: CDD P. falciparum Luciferase ABS 11-pt Reconfirmation Dose Response (48hr): IC50 (μM), 11-pt dose response, 48hr
[3] = DD2, 8-pt dose response, 96hr, read-out: CDD P. falciparum Luciferase ABS 8-pt Reconfirmation Dose Response (96hr): IC50
[4] = DD2, 8-pt dose response, 96hr, read-out: CDD P. falciparum Luciferase ABS 8-pt Reconfirmation Dose Response (96hr): Maximum inhibition (%)
[5] = DD2, 11-pt dose response, 48hr, read-out: CDD P. falciparum Luciferase ABS 11-pt Reconfirmation Dose Response (48hr): Maximum inhibition (%)
[6] = DD2, 11-pt dose response, 96hr, read-out: CDD P. falciparum Luciferase ABS 11-pt Reconfirmation Dose Response (96hr): IC50
[7] = DD2, 11-pt dose response, 96hr, read-out: CDD P. falciparum Luciferase ABS 11-pt Reconfirmation Dose Response (96hr): Maximum inhibition (%)
[8] = DD2, Sybr Green I, 11-pt dose response, 96hr, read-out: CDD P. falciparum Sybr Green I ABS 11-pt Reconfirmation Dose Response (96hr): IC50
[9] = DD2, Sybr Green I, 11-pt dose response, 96hr

SMILES | IC50 [1, 2] [µM] | IC50 [1, 3] [µM] | Emax [1, 4] [%] | Emax [1, 5] [%] | IC50 [1, 6] [µM] | Emax [1, 7] [%] | IC50 (P. falciparum Dd2; [8]) [nM] | Emax (P. falciparum Dd2; [9]) [%] | IC50 ([1]; DD2, read-out: CDD P. falciparum Luc 11pt dose response (96hr, n=2): IC50 (μM), 96hr, 11-point, n=2) [µM] | IC50 ([1]; DD2, read-out: CDD P. falciparum Luciferase 11pt dose response (48hr, n=2): IC50 (μM), 48hr, 11-point, n=2) [µM] | Emax ([1]; DD2, 48hr, 11-point, read-out: CDD P. falciparum Luciferase ABS 11-pt Reconfirmation Dose Response (48hr): Maximum inhibition (%)) [%] | Emax ([1]; DD2, 96hr, 11-point, read-out: CDD P. falciparum Luciferase ABS 11-pt Reconfirmation Dose Response (96hr): Maximum inhibition (%)) [%] | CDD P. falciparum Sybr Green I ABS Dd2 Dose Response: Maximum measured (%) (P. falciparum Dd2; Dd2, 96 h) | IC50 (P. falciparum Dd2; DD2, 96 h, read-out: CDD P. falciparum Sybr Green I ABS Dd2 Dose Response: IC50) [nM]
CC(C)c1nccc(C2(c3ccccc3Cl)CCNCC2)n1 [DDD01250092] | 3.82 | 1.08 | 86.6 | 58.4 | 1.95 | 90.3 | 5400 | 74.3 |  |  |  |  |  | 
Cc1cccc2[nH]c(-c3cn(C4CCNCC4)nn3)nc12 [DDD01250141] | 3.07 | 0.59 | 94.4 | 66.5 | 2.16 | 97.2 | 1480 | 72.3 |  |  |  |  |  | 
O=C(c1scc2c1OCCO2)N1CCOC(CCc2ccccc2)C1 (centres unmarked) [DDD01250278] | 1.39 | 0.55 | 93.1 | 97.2 | 0.767 | 100 | 1470 | 101 |  |  |  |  |  | 
CCCn1ccnc1CN1CCCC1c1ccccn1 (centres unmarked) [DDD01250556] | 4.66 | 0.46 |  | 53.8 | 1.47 | 94.8 | 11900 | 68.5 |  |  |  |  |  | 
Cc1cc2nc(-c3cn(C4CCNCC4)nn3)[nH]c2cc1C [DDD01250700] | 2.08 | 0.34 | 95.8 | 61.5 | 1.01 | 98.7 | 3230 | 82 |  |  |  |  |  | 
CC(C)(C)CNCC1(O)CCCN(Cc2ccccc2F)C1=O (centres unmarked) [DDD01250810] | > 12.5 | 1.09 | 82.3 | 55.3 | 5.69 | 80.8 | 4310 | 64.2 |  |  |  |  |  | 
CCCn1nccc1C(=O)N1CCN(C2CCc3ccccc3C2)CC1 (centres unmarked) [DDD01251134, CCCn1nccc1C(=O)N1CCN(CC1)C1CCc2ccccc2C1] |  |  |  |  |  |  |  |  | 0.224 | 0.205 | 95.3 | 100 | 56.3 | > 12500
Fc1ccccc1C1(CNC2CCOC3(CCOCC3)C2)CCCC1 (centres unmarked) [DDD01251139] | 8.87 | 0.96 | 86.2 | 69.5 | 1.43 | 89.3 | 587 | 71.8 |  |  |  |  |  | 
Cc1nc(-c2cc(Cl)cc3c2OC(CN)C3)c[nH]1 (centres unmarked) [DDD01251343] | > 12.5 | 0.67 |  | -0.28 | 3.7 | 84.3 | > 1390 |  |  |  |  |  |  | 
Cc1nc(C2CCNCC2)cc(N(C)Cc2cc3cc(F)ccc3[nH]2)n1 [DDD01251474] | 2.3 | 0.99 | 93.3 | 98.2 | 0.415 | 100 | 3200 | 90.9 |  |  |  |  |  | 
Cc1nccn1CCCN1CCCC(c2ccccc2)C1 (centres unmarked) [DDD01251840] | 3.3 | 0.25 | 91.7 | 83.3 | 0.14 | 99.5 | 880 | 93.4 |  |  |  |  |  | 
